Source: patent publication US20230061736A1, “GPR119 AGONISTS” (Kallyope, Inc., priority 2019, published 2023)

Target: T1, human GPR119 (hGPR119) (Homo sapiens, UniProt Q8TDV5)
T1 construct: expressed in transfected cells
T1 sequence (Q8TDV5 1-335): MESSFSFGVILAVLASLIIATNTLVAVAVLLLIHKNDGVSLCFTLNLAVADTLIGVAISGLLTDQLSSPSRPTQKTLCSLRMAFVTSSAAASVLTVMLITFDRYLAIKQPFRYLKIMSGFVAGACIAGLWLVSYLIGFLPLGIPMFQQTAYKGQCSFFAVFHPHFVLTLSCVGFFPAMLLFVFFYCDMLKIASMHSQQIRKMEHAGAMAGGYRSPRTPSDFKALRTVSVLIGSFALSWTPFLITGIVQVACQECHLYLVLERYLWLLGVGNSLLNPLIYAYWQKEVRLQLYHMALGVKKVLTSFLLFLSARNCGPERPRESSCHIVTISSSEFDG
Experiment: cAMP accumulation assay (cAMP Gs dynamic HTRF kit)
Assay type: cell-based
Details: CHO-K1 cells stably expressing hGPR119, 4-parameter fit; for Emax: 1 h, % activity normalized to Max/Min controls; for EC50: cAMP accumulation
Method: CHO-K1 cells stably expressing human GPR119 (hGPR119) were prepared by transfection of a GPR119-carrying plasmid using Lipofectamine 2000 (following manufacturer instructions). A stable cell line was established using the limiting dilution method with geneticine selection. Assay-ready frozen (ARF) cells were prepared and used throughout the study.
The assay was performed in a 384-well plate format using the cAMP Gs dynamic assay kit from Cisbio. ARF cells expressing hGPR119 were thawed, washed and then resuspended in cAMP stimulation buffer at a cell density of 1.1×10^6 cells/mL. Cells were plated at a density of ˜10,000 cells/well (9 μL/well). Dose response curves for the tested compounds were prepared in a cAMP stimulation buffer, containing 0.1% Tween 80 at 4 fold the final concentration. The compounds were then transferred to the cell plates using BRAVO (3 μL/well) and the plates were incubated for 60 minutes at 37° C./5% CO2. Detection buffer (10 μL, prepared as described in the cAMP Gs dynamic kit) were added to each well, and the plates were incubated at ambient temperature for 1 hr.
RT-FRET was measured using a ClarioSTAR plate reader, calculating the ratio between emissions at 665 nm and 620 nm (HTRF ratio). The HTRF ratio for positive (Max) and negative (Min) controls were used to normalize HTRF data and generate values for % activity. EC50 and Max activity values were determined using a standard 4-parameter fit.

Row | SMILES | Emax [%] | EC50 [nM]
1 | O=C(Cc1ccc(OCCCC2CCN(c3ncc(Cl)cn3)CC2)cc1F)NC(CO)(CO)CO [Example 5, 2-[4-[3-[1-(5-chloropyrimidin-2-yl)-4-piperidyl]propoxy]-2-fluoro-phenyl]-N-[2-hydroxy-1,1-bis(hydroxymethyl)ethyl]acetamide] | 100 to 130 | 100 to 1000
2 | O=C(Cc1c(F)cc(OCCCC2CCN(c3ncc(Cl)cn3)CC2)cc1F)NC(CO)(CO)CO [Example 6, 2-[4-[3-[1-(5-chloropyrimidin-2-yl)-4-piperidyl]propoxy]-2,6-difluoro-phenyl]-N-[2-hydroxy-1,1-bis(hydroxymethyl)ethyl]acetamide] | 100 to 130 | 100 to 1000
3 | CCc1cnc(N2CCC(CCCOc3cc(F)c(CC(=O)NC(CO)(CO)CO)c(F)c3)CC2)nc1 [Example 7, 2-[4-[3-[1-(5-ethylpyrimidin-2-yl)-4-piperidyl]propoxy]-2,6-difluoro-phenyl]-N-[2-hydroxy-1,1-bis(hydroxymethyl)ethyl]acetamide] | 100 to 130 | ≤ 100
4 | CCCc1cnc(N2CCC(CCCOc3cc(F)c(CC(=O)NC(CO)(CO)CO)c(F)c3)CC2)nc1 [Example 8, 2-[2,6-difluoro-4-[3-[1-(5-propylpyrimidin-2-yl)-4-piperidyl]propoxy]phenyl]-N-[2-hydroxy-1,1-bis(hydroxymethyl)ethyl]acetamide] | 100 to 130 | ≤ 100
5 | O=C(Cc1ccc(OCCCC2CCN(c3ncc(Cl)cn3)CC2)cc1F)N1CC(CO)(CO)C1 [Example 9, 1-[3,3-bis(hydroxymethyl)azetidin-1-yl]-2-[4-[3-[1-(5-chloropyrimidin-2-yl)-4-piperidyl]propoxy]-2-fluoro-phenyl]ethanone] | 100 to 130 | ≤ 100
6 | O=C(Cc1ccc(OCCCC2CCN(c3ncc(Cl)cn3)CC2)cc1F)NCCS(=O)(=O)O [Example 10, 2-[[2-[4-[3-[1-(5-chloropyrimidin-2-yl)-4-piperidyl]propoxy]-2-fluoro-phenyl]acetyl]amino]ethanesulfonic acid] | ≥ 130 | 1000 to 10000
7 | O=C(Cc1ccc(OCCCC2CCN(c3ncc(Cl)cn3)CC2)cc1F)NCCCS(=O)(=O)O [Example 11, 3-[[2-[4-[3-[1-(5-chloropyrimidin-2-yl)-4-piperidyl]propoxy]-2-fluoro-phenyl]acetyl]amino]propane-1-sulfonic acid] | ≥ 130 | 1000 to 10000
8 | O=C(Cc1ccc(OCCCC2CCN(c3ncc(Cl)cn3)CC2)cc1F)NCCCCS(=O)(=O)O [Example 12, 4-[[2-[4-[3-[1-(5-chloropyrimidin-2-yl)-4-piperidyl]propoxy]-2-fluoro-phenyl]acetyl]amino]butane-1-sulfonic acid] | ≥ 130 | 1000 to 10000
9 | NS(=O)(=O)CCCNC(=O)Cc1ccc(OCCCC2CCN(c3ncc(Cl)cn3)CC2)cc1F [Example 13, 2-[4-[3-[1-(5-chloropyrimidin-2-yl)-4-piperidyl]propoxy]-2-fluoro-phenyl]-N-(3-sulfamoylpropyl)acetamide] | ≥ 130 | ≤ 100
10 | NS(=O)(=O)CCCCNC(=O)Cc1ccc(OCCCC2CCN(c3ncc(Cl)cn3)CC2)cc1F [Example 14, 2-[4-[3-[1-(5-chloropyrimidin-2-yl)-4-piperidyl]propoxy]-2-fluoro-phenyl]-N-(4-sulfamoylbutyl)acetamide] | ≥ 130 | ≤ 100
11 | CCc1cnc(N2CCC(CCCOc3ccc(CC(=O)NCCC[N+](C)(C)C)c(F)c3)CC2)nc1 [Example 15, 3-[[2-[4-[3-[1-(5-ethylpyrimidin-2-yl)-4-piperidyl]propoxy]-2-fluoro-phenyl]acetyl]amino]propyl-trimethyl-ammonium] | 100 to 130 | 100 to 1000
12 | O=C(Cc1ccc(OCCCC2CCN(c3ncc(Cl)cn3)CC2)cc1F)NCCCCCC(=O)NC(CO)CO [Example 17, 6-[[2-[4-[3-[1-(5-chloropyrimidin-2-yl)-4-piperidyl]propoxy]-2-fluoro-phenyl]acetyl]amino]-N-[2-hydroxy-1-(hydroxymethyl)ethyl]hexanamide] | ≥ 130 | 100 to 1000
13 | O=C(Cc1ccc(OCCCC2CCN(c3ncc(Cl)cn3)CC2)cc1F)NCCCCCC(=O)NC(CO)(CO)CO [Example 18, 6-[[2-[4-[3-[1-(5-chloropyrimidin-2-yl)-4-piperidyl]propoxy]-2-fluoro-phenyl]acetyl]amino]-N-[2-hydroxy-1,1-bis(hydroxymethyl)ethyl]hexanamide] | 100 to 130 | 100 to 1000
14 | O=C(Cc1ccc(OCCCC2CCN(c3ncc(Cl)cn3)CC2)cc1F)NCCC(=O)NC(CO)CO [Example 19, 3-[[2-[4-[3-[1-(5-chloropyrimidin-2-yl)-4-piperidyl]propoxy]-2-fluoro-phenyl]acetyl]amino]-N-[2-hydroxy-1-(hydroxymethyl)ethyl]propanamide] | 100 to 130 | 100 to 1000
15 | O=C(Cc1ccc(OCCCC2CCN(c3ncc(Cl)cn3)CC2)cc1F)NCCC(=O)NC(CO)(CO)CO [Example 20, 3-[[2-[4-[3-[1-(5-chloropyrimidin-2-yl)-4-piperidyl]propoxy]-2-fluoro-phenyl]acetyl]amino]-N-[2-hydroxy-1,1-bis(hydroxymethyl)ethyl]propanamide] | ≥ 130 | 100 to 1000
16 | O=C(Cc1ccc(OCCCC2CCN(c3ncc(Cl)cn3)CC2)cc1F)NCCCC(=O)NC(CO)CO [Example 21, 4-[[2-[4-[3-[1-(5-chloropyrimidin-2-yl)-4-piperidyl]propoxy]-2-fluoro-phenyl]acetyl]amino]-N-[2-hydroxy-1-(hydroxymethyl)ethyl]butanamide] | ≥ 130 | 100 to 1000
17 | O=C(Cc1ccc(OCCCC2CCN(c3ncc(Cl)cn3)CC2)cc1F)NCCCC(=O)NC(CO)(CO)CO [Example 22, 4-[[2-[4-[3-[1-(5-chloropyrimidin-2-yl)-4-piperidyl]propoxy]-2-fluoro-phenyl]acetyl]amino]-N-[2-hydroxy-1,1-bis(hydroxymethyl)ethyl]butanamide] | ≥ 130 | 100 to 1000
18 | O=C(Cc1ccc(OCCCC2CCN(c3ncc(Cl)cn3)CC2)cc1F)NCCCCC(=O)NC(CO)CO [Example 23, 5-[[2-[4-[3-[1-(5-chloropyrimidin-2-yl)-4-piperidyl]propoxy]-2-fluoro-phenyl]acetyl]amino]-N-[2-hydroxy-1-(hydroxymethyl)ethyl]pentanamide] | ≥ 130 | 100 to 1000
19 | O=C(Cc1ccc(OCCCC2CCN(c3ncc(Cl)cn3)CC2)cc1F)NCCCCC(=O)NC(CO)(CO)CO [Example 24, 5-[[2-[4-[3-[1-(5-chloropyrimidin-2-yl)-4-piperidyl]propoxy]-2-fluoro-phenyl]acetyl]amino]-N-[2-hydroxy-1,1-bis(hydroxymethyl)ethyl]pentanamide] | ≥ 130 | 100 to 1000
20 | O=C(Cc1ccc(OCCCC2CCN(c3ncc(Cl)cn3)CC2)cc1F)NCCCCCC(=O)N1C[C@H](O)[C@@H](O)C1 [Example 25, 2-[4-[3-[1-(5-chloropyrimidin-2-yl)-4-piperidyl]propoxy]-2-fluoro-phenyl]-N-[6-[(3S,4S)-3,4-dihydroxypyrrolidin-1-yl]-6-oxo-hexyl]acetamide] | ≥ 130 | 100 to 1000
21 | O=C(NC(CO)(CO)CO)C1CN(C(=O)Cc2c(F)cc(OCCCC3CCN(c4ncc(Cl)cn4)CC3)cc2F)C1 [Example 26, 1-[2-[4-[3-[1-(5-chloropyrimidin-2-yl)-4-piperidyl]propoxy]-2,6-difluoro-phenyl]acetyl]-N-[2-hydroxy-1,1-bis(hydroxymethyl)ethyl]azetidine-3-carboxamide] | ≥ 130 | ≤ 100
22 | COCc1cnc(N2CCC(CCCOc3ccc(CC(=O)N4CC(C(=O)NCCNC(=O)NC(CO)(CO)CO)C4)c(F)c3)CC2)nc1 [Example 27, 1-[2-[2-fluoro-4-[3-[1-[5-(methoxymethyl)pyrimidin-2-yl]-4-piperidyl]propoxy]phenyl]acetyl]-N-[2-[[2-hydroxy-1,1-bis (hydroxymethyl)ethyl]carbamoylamino]ethyl]azetidine-3-carboxamide] | 100 to 130 | 100 to 1000
23 | O=C(NC(CO)CO)C1CN(C(=O)Cc2ccc(OCCCC3CCN(c4ncc(Cl)cn4)CC3)cc2F)C1 [Example 28, 1-[2-[4-[3-[1-(5-chloropyrimidin-2-yl)-4-piperidyl]propoxy]-2-fluoro-phenyl]acetyl]-N-[2-hydroxy-1-(hydroxymethyl)ethyl]azetidine-3-carboxamide] | 100 to 130 | 100 to 1000
